Values joined by “and” are separate entries in the source; they are usually repeats but may differ in a detail not shown here. Identical values can stand only once.
Columns and labels:
Vero cells = assay: Cell toxicity assay (MTT); assay type: cell-based; settings: doses ranging from 0.5 nM to 4 µM, before and after nebulization, Vero-E6 cells
Experimental: Vero cells were incubated at 37 °C in the presence or absence of the indicated peptides at indicated concentrations up to 5 μM HRC4 peptide as added into the media, and the cells were incubated a 37 °C. According to the manufacturer’s guidelines, the viability was determined after 24 h using the Vybrant MTT (3- (4, 5-dimethylthiazolyl-2) −2, 5-diphenyltetrazolium bromide) cell proliferation assay kit. TritonX-100 (1%) was used as a positive control. Absorbance was read at 540 nm using a Tecan M1000PRO microplate reader.

[1] = Laser diffraction and output measurement of the nebulized aerosol; assay type: physicochemical; settings: HRC4 4 mg/ml, 3 ml, prototype mesh nebulizer, laser diffraction; mean +/- SD of four devices
Experimental: The aerodynamic performances of the aerosols generated by the prototype mesh nebulizer were determined by laser diffraction using a Spraytec™ instrument (Malvern Instruments Ltd., Malvern, UK) and the Spraytec inhalation cell (Malvern Instruments Ltd., Malvern, UK) connected to an aspiration carried out by a vacuum pump set to 30-50 L/min[70]. The prototype mesh nebulizers (n=4) were loaded with 3 ml of either NaCl 0.9% or the HCR4 peptide (4 mg/ml, dissolved as described above) and then connected to the inhalation cell. Nebulization duration was notified at the end of the complete aerosolization of the loaded 3 ml. Diffraction data and volume distribution were automatically registered by the Spraytec software.
The output of nebulizer was determined by the difference between the weight of the nebulizer before and after nebulization and was expressed in percentage of the loaded volume. The output rate of each nebulizer (in ml/min) was then determined as the ratio between the output and the nebulization duration. At least, the residual volume corresponding to the volume of liquid remaining in the reservoir at the end of the nebulization was also determined by weighting the nebulizer before loading it and after nebulization.

[2] = Immunofluorescence detection of HRC4 in lungs after nebulization; assay type: in vivo, cynomolgus macaques; settings: lungs sampled 15 min, 16 h and 24 h after nebulization; anti-HRC4 immunofluorescence, all three lung regions
Experimental: To evaluate immediate HRC4 biodistribution into lungs, one animal from the MeV-infection experiment (C1) was nebulized with 3 ml (4 mg/ml) immediately after euthanasia under mechanical ventilation (Dräger Primus anesthesia machine). For mid-term biodistribution, animals were nebulized 24 h (C2) or 16 h (C3) before euthanasia.
To assess the bioavailability of the HRC4 peptide on lungs, sections were stained and imaged by confocal microscopy as described previously. Briefly, after being blocked and permeabilized in 0.1% TritonX100, 5% BSA solution, slices were sequentially incubated with a rabbit anti-HRC4 (Genscript) overnight at 4 °C and with a secondary donkey anti-rabbit alexa-555 (Thermo Fisher) diluted 1/500 and DAPI (1 µg/ml) for 1 h at room temperature. Slides were imaged using a Zeiss LSM800 confocal microscope and processed by ImageJ1.52p.

[3] = ELISA of anti-HRC4 antibodies (IgG, IgA, IgM) in serum; assay type: in vivo, cynomolgus macaques; settings: for anti-HRC4 antibodies (IgG, IgA and IgM), ELISA, D28 minus day 0: serum 1:20, rep1-rep3
Experimental: (§1) Briefly, HRC4 was coated in carbonate buffer pH 9.2 overnight (1 μg /well). […] Rabbit anti-HRC4 Ab followed with anti-rabbit Ab coupled to HRP was used as a positive control. Evaluation of total IgE in the serum was performed using the monkey IgE kit (Ozyme) following the manufacturer’s recommendation.

[4] = Biochemical parameters in plasma after nebulization; assay type: in vivo, cynomolgus macaques; settings: noninfected animals, days 1, 2, 3, 6, 28 after nebulization
Experimental: (§2) Biochemical parameters in the plasma and cellular composition of the blood were evaluated immediately before treatment and 1, 2, 3, 6, and 28 days after nebulization of either saline or HRC4 peptide in non-infected and MeV-infected NHP, to search for early and late toxic effects of the aerosol delivery (Fig. 4). […] In both control and peptide group, few animals experienced transient increase of creatine kinase above physiological values[40] (Fig. 4a), which can be linked to intramuscular anesthesia, as described previously.

[5] = Haematological parameters after nebulization; assay type: in vivo, cynomolgus macaques; settings: noninfected animals, days 1, 2, 3, 6, 28 after nebulization
Experimental: as §2

[6] = Flow cytometry of major PBMC populations in blood; assay type: in vivo, cynomolgus macaques; settings: compared to values before the nebulization
MeV IC323-eGFP [7] = assay: Haematological parameters during MeV infection; assay type: in vivo, Cynomolgus monkeys (Macaca fascicularis)
Experimental: Supplementary figure S6. Evolution of the hematological parameters during the MeV infection. Major PBMC populations in blood of cynomolgus macaques were followed using Sysmex XT2000i Vet automatic analyzer, after nebulization of either 3 ml of 0.9% NaCl (C) or […] of HRC4 peptide (P) and MeV infection. Transient lymphopenia is observed in the absence of peptide protection.
Lymphocytes concentration (K/uL)
Monocytes concentration (K/uL)

[8] = ELISA of total IgE in serum; assay type: in vivo, cynomolgus macaques; set-up: unit not given here; settings: Peptide group
Experimental: as §1

[9] = ELISA of HRC4 concentration in serum and urine
MeV IC323-eGFP [10] = assay: ELISA of total MeV-specific immunoglobulin in serum; settings: HRC4-treated animals P1 and P3
Experimental: Sera of MeV-infected NHPs were tested for the presence of anti-MeV antibodies by ELISA. Briefly, MeV nucleoprotein, produced as described previously[71] was coated onto 96-well ELISA plates overnight (1 μg /well). Plates were blocked using a mix of PBS 1X-Milk 5% for 30 min at room temperature. Serial dilutions (1:50 and then 1:3 serial dilutions until 1:2952450) were done in PBS 1X-Tween 0.05%-Milk and incubated 2 h at RT. […] Optical density was measured at 450 and 620 nm using an ELISA reader (Thermo Fisher) and the absorbance difference between 450 nm and 650 nm was determined and corrected for blank readings. The serum sample was considered positive when its value was higher than three times the average value obtained with the negative sera of the same dilution and the results were expressed as reciprocal value of the last serum dilution giving the measurable values.

MeV IC323-eGFP [11] = assay: MeV infection of NHP: clinical signs and fluorescent rash
Experimental: Blood samples for hematology analyses were collected at days −1, 0, 1, 2, 3, 6, 9, 13, 16 and 28. Blood samples for flow cytometry analyses were collected at days −1, 3, 6, 9, 13, 16 and 28. Throat swabs were collected at days 0, 1, 2, 3, 6, 9, 13, 16 and 28, using cotton swabs. Oxygen saturation and heartbeat were monitored by a Radical-7® Pulse CO-Oximeter (Masimo) and breathing was monitored by a Dräger Primus anesthesia machine. Hematological parameters were measured on a Procyte DX (IDEXX) and biochemical parameters were evaluated on a Konelab 30 (Thermo Fisher). Development of fluorescent rash was followed using a FastGene Blue/Green LED Flashlight (Nippon genetics).

MeV IC323-eGFP [12] = assay: Class-unswitched and switched memory B cells by flow cytometry; settings: HRC4-treated animals P1 and P3
Experimental: Whole blood was collected on EDTA, then transferred into BD vacutainer CPT tubes (after removal of anticoagulant solution from CPT tubes) and spun at 2500 g for 20 min. The PBMCs were collected and one-tenth were used to isolate RNA. […] Cells were acquired on a MACSQuant®10 flow cytometer (Miltenyi) and analyzed by FlowJo10.8 (Becton Dickinson) and Kaluza 2.1 (Beckman Coulter).

MeV IC323-eGFP [13] = assay: Serial passaging of MeV in presence of peptide and sequencing for escape variants; settings: 1 µM peptide, Vero-hSLAM cells, 8 passages, sequencing of viral RNA

In the case of `CC[C@H](C)[C@H](NC(=O)[C@H](C)NC(=O)[C@H](CC(N)=O)NC(=O)CNC(=O)[C@H](CC(C)C)NC(=O)[C@H](CC(N)=O)NC(=O)[C@@H](NC(=O)CNC(=O)[C@@H](NC(=O)[C@H](CC(=O)O)NC(=O)[C@H](CC(C)C)NC(=O)[C@H](CCCNC(=N)N)NC(=O)[C@H](CCC(=O)O)NC(=O)[C@H](CC(C)C)NC(=O)[C@H](CO)NC(=O)[C@@H](NC(=O)[C@@H]1CCCN1C(=O)[C@@H]1CCCN1)[C@@H](C)CC)C(C)C)[C@@H](C)O)C(=O)N[C@@H](C)C(=O)N[C@@H](CCCCN)C(=O)N[C@@H](CC(C)C)C(=O)N[C@@H](CCC(=O)O)C(=O)N[C@@H](CC(=O)O)C(=O)N[C@@H](C)C(=O)N[C@@H](CCCCN)C(=O)N[C@@H](CCC(=O)O)C(=O)N[C@@H](CC(C)C)C(=O)N[C@@H](CC(C)C)C(=O)N[C@@H](CCC(=O)O)C(=O)N[C@@H](CO)C(=O)N[C@@H](CO)C(=O)N[C@@H](CC(=O)O)C(=O)N[C@@H](CCC(N)=O)C(=O)N[C@H](C(=O)N[C@@H](CC(C)C)C(=O)N[C@@H](CCCNC(=N)N)C(=O)NCC(=O)N[C@@H](CO)C(=O)NCC(=O)N[C@@H](CO)C(=O)NCC(=O)N[C@@H](CSC1CC(=O)N(CCCC(=O)NCCOCCOCCOCCOCCC(=O)NCCN(CCNC(=O)CCOCCOCCOCCOCCNC(=O)CCCN2C(=O)CC(SC[C@H](NC(=O)CNC(=O)[C@H](CO)NC(=O)CNC(=O)[C@H](CO)NC(=O)CNC(=O)[C@H](CCCNC(=N)N)NC(=O)[C@H](CC(C)C)NC(=O)[C@@H](NC(=O)[C@H](CCC(N)=O)NC(=O)[C@H](CC(=O)O)NC(=O)[C@H](CO)NC(=O)[C@H](CO)NC(=O)[C@H](CCC(=O)O)NC(=O)[C@H](CC(C)C)NC(=O)[C@H](CC(C)C)NC(=O)[C@H](CCC(=O)O)NC(=O)[C@H](CCCCN)NC(=O)[C@H](C)NC(=O)[C@H](CC(=O)O)NC(=O)[C@H](CCC(=O)O)NC(=O)[C@H](CC(C)C)NC(=O)[C@H](CCCCN)NC(=O)[C@H](C)NC(=O)[C@@H](NC(=O)[C@H](C)NC(=O)[C@H](CC(N)=O)NC(=O)CNC(=O)[C@H](CC(C)C)NC(=O)[C@H](CC(N)=O)NC(=O)[C@@H](NC(=O)CNC(=O)[C@@H](NC(=O)[C@H](CC(=O)O)NC(=O)[C@H](CC(C)C)NC(=O)[C@H](CCCNC(=N)N)NC(=O)[C@H](CCC(=O)O)NC(=O)[C@H](CC(C)C)NC(=O)[C@H](CO)NC(=O)[C@@H](NC(=O)[C@@H]3CCCN3C(=O)[C@@H]3CCCN3)[C@@H](C)CC)C(C)C)[C@@H](C)O)[C@@H](C)CC)[C@@H](C)CC)C(=O)O)C2=O)CCO[C@H]2CC[C@@]3(C)C(=CC[C@H]4[C@@H]5CC[C@H]([C@H](C)CCCC(C)C)[C@@]5(C)CC[C@@H]43)C2)C1=O)C(=O)O)[C@@H](C)CC` (stereo partly shown) [HRC4], the Cytotoxicity (Vero cells) is reported as “No measurable cytotoxicity”, the “< 2µm” value [1] is reported as 13.9 +/- 2.0% and the “< 5µm” value [1] is reported as 57.4 +/- 3.9%. For the same compound, the VMD [1] was 4.43 +/- 0.26 µm, the “Deposition of HRC4 in lungs” value [2] was “presence of HRC4 within the alveoli surface area” and the “HRC4 specific antibodies in serum” value ([3]; 28 days after nebulization) was “not found”. For the same compound, the “anti-HRC4 antibodies (IgG, IgA and IgM), ELISA, D28 minus day 0” value ([3]; animal P2) was 0.2158 and 0.159 and 0.1449, the “anti-HRC4 antibodies (IgG, IgA and IgM), ELISA, D28 minus day 0” value ([3]; animal P3) was 0.0684 and 0.0721 and 0.0837 and the “Biochemical parameters in plasma” value [4] was “within the physiological levels”. The Hematological parameters [5] was “within the physiological levels”, the “Composition of major PBMC populations in blood” value [6] was “did not reveal any significant changes” and the Duration of leukopenia (MeV IC323-eGFP [7]; HRC4-treated animal P2) was 9-13 days p.i. The “Total white blood cell and lymphocyte counts” value (MeV IC323-eGFP [7]; day 6 following MeV infection, HRC4-treated macaques) was “remained stable”, the “Total IgE” value ([8]; animal column 1, day 0 post nebulization) was 1.801 and the “Total IgE” value ([8]; animal column 1, day 3 post nebulization) was 3.381. For the same compound, the “Total IgE” value ([8]; animal column 1, day 6 post nebulization) was 4.651, the “Total IgE” value ([8]; animal column 1, day 13 post nebulization) was 17.565 and the “Total IgE” value ([8]; animal column 1, day 28 post nebulization) was 2.916. For the same compound, the “Total IgE” value ([8]; animal column 2, day 0 post nebulization) was 1.21, the “Total IgE” value ([8]; animal column 2, day 3 post nebulization) was 1.735 and the “Total IgE” value ([8]; animal column 2, day 6 post nebulization) was 1.034. For the same compound, the “Total IgE” value ([8]; animal column 2, day 13 post nebulization) was 2.308, the “Total IgE” value ([8]; animal column 2, day 28 post nebulization) was 3.192 and the “Total IgE” value ([8]; animal column 3, day 0 post nebulization) was 3.017. For the same compound, the “Total IgE” value ([8]; animal column 3, day 3 post nebulization) was 5.929, the “Total IgE” value ([8]; animal column 3, day 6 post nebulization) was 6.63 and the “Total IgE” value ([8]; animal column 3, day 13 post nebulization) was 5.888. For the same compound, the “Total IgE” value ([8]; animal column 3, day 28 post nebulization) was 1.999, the level at time molar at 96 h ([9]; cynomolgus monkey, serum, inhaled or intranasal, 4 mg/kg, [HRC4] nM, serum of NHP, 96 hours post nebulization, single values) was 0.285 nM and the HRC4 in urine ([9]; nebulized macaques) was “absent”. The “[HRC4]” value ([9]; serum of NHP, 0 hours post nebulization, single values) was 0 nM, the “[HRC4]” value ([9]; serum of NHP, 168 hours post nebulization, single values) was 0 nM and the Seroconversion (MeV IC323-eGFP [10]) was “absence of seroconversion”. The “Abrogation of development of MeV infection” value (MeV IC323-eGFP [11]; absence of fluorescent rash, PBMC infection, viremia, viral shedding and MeV-specific immune response) was “two out of three animals”, the GFP-fluorescent rash (MeV IC323-eGFP [11]; nebulized HRC4 24 h and 6 h before and 24 h after intra-tracheal 10^4 PFU MeV IC323-eGFP, 3 animals) was “no HRC4-treated animals” and the “Memory B cell populations” value (MeV IC323-eGFP [12]) was “remained stable without any noticeable increase”. For the same compound, the “Mutations in MeV F after serial passage in presence of peptide” value (MeV IC323-eGFP [13]) was “no mutations were identified”.

Source: publication PMC9616412, “Nebulized fusion inhibitory peptide protects cynomolgus macaques from measles virus infection” (Nature Communications, 2022)
